Results reported in US8906906B2, “Viral replication inhibitors” (Katholieke Universiteit Leuven, priority 2009, dated 2014).
pEC50, pIC50: −log10 of the molar value.

Columns and labels:
[1] = molecular target: T1, His6-tagged HIV-1 integrase / flag-LEDGF/p75 interaction (Human immunodeficiency virus type 1 group M subtype B, UniProt P04585); assay: AlphaScreen assay of LEDGF-integrase interaction inhibition; format: binding; settings: for pIC50: compounds tested from 0.1 up to 100 μM; for inhibition at 100 µM: read-out: % inhibition at 100 μM in IN-LEDGF alphascreen (values marked *)
T1 construct: His6-tagged HIV-1 integrase; made in house
Experimental: Alphascreen Assay to Measure the LEDGF-Integrase Interaction Inhibitory Activity of Compounds of the Invention
The AlphaScreen assay was performed according to the manufacturer's protocol (Perkin Elmer, Benelux). Reactions were performed in 25 μl final volume in 384-well Optiwell™ microtiter plates (Perkin Elmer). The reaction buffer contained 25 mM Tris-HCl (pH 7.4), 150 mM NaCl, 1 mM MgCl2, 0.01% (v/v) Tween-20 and 0.1% (w/v) bovine serum albumin. His6-tagged integrase (300 nM final concentration) was incubated with the compounds for 30 min at 4° C. The compounds were added at varying concentrations spanning a wide range from 0.1 up to 100 μM. Afterwards 100 nM flag-LEDGF/p75 was added and incubation was prolonged for an additional hour at 4° C. Subsequently 5 μl of Ni-chelate-coated acceptor beads and 5 μl anti-flag donor beads were added to a final concentration of 20 μg/ml of both beads. Proteins and beads were incubated for 1 h at 30° C. in order to allow association to occur. Exposure of the reaction to direct light was omitted as much as possible and the emission of light from the acceptor beads was measured in the EnVision plate reader (Perkin Elmer, Benelux) and analyzed using the EnVision manager software. IN/DNA binding was analyzed in a similar setting using His6-tagged integrase (1 μM final concentration) and an oligodeoxynucleotide mimicking the IN ELISA oligonucleotide substrate (30 nM final concentration). Counterscreens with JPO2 or PogZ, respectively, were essentially performed as described previously.
Expression and purification of recombinant proteins: His6-tagged HIV-1 integrase, 3×flag-tagged LEDGF/p75, MBP-JPO2 and MBP-PogZ were purified for AlphaScreen applications as described previously 23,25,56.

[2] = Cytotoxicity in mock-infected MT-4 cells (MTT); format: cell-based; settings: human, read-out: CC50 in MT4-IIIB (μm)
Experimental: A rapid and automated assay procedure was used for the in vitro evaluation of anti-HIV agents. An HTLV-1 transformed T4-cell line MT-4, which was previously shown to be highly susceptible to and permissive for HIV infection, served as the target cell line. Inhibition of the HIV-induced cytopathogenic effect was used as the end point. The viability of both HIV-and mock-infected cells was assessed spectrophotometrically via in situ reduction of 3-(4,5-dimethylthiazol-2-yl)-2,5-diphenyltetrazolium bromide (MTT). The 50% cytotoxic concentration (CC50 in μg/ml) was defined as the concentration of compound that reduced the absorbance of the mock-infected control sample by 50%. The percent protection achieved by the compound in HIV-infected cells was calculated by the following formula: […]
Examples of inhibition of cell proliferation by particular compounds of formula (I) can be found by looking at the respective CC50 values in the MT-4 cell line.
Cells: MT-4 cells (Miyoshi et al., 1982) were grown and maintained in RPMI 1640 medium supplemented with 10% heat-inactivated fetal calf serum, 2 mM I-glutamine, 0.1% sodium bicarbonate, and 20 æg of gentamicin per ml.

[3] = test system: HIV (MT4-IIIB); assay: Anti-HIV activity: inhibition of HIV-induced cytopathogenic effect in MT-4 cells (MTT); format: cell-based; settings: Human immunodeficiency virus 1, IIIB

Row | Compound | pIC50 [1] | CC50 [2] | pEC50 [3] | inhibition at 100 µM [1]
1 | CCCC(C(=O)O)c1c(C)nc(N(C)C2CCCCC2)nc1-c1ccc(C)cc1 (stereo not drawn) [cpd 12] | 4.60 | 81.8 µM | 4.32 | 
2 | CCCC(C(=O)O)c1c(C)nc(N2CCc3ccccc32)nc1-c1ccc(C)cc1 (stereo not drawn) [cpd 58] | 4.75 | 38.7 µM | 5.54 | 
3 | CCCC(C(=O)O)c1c(C)nc(NCc2ccccc2)nc1-c1ccc(C)cc1 (stereo not drawn) [cpd 168] |  | 128 µM | 4.62 | 
4 | CCCC(C(=O)O)c1c(C)nc(N2CCCC(c3ccccc3)C2)nc1-c1ccc(C)cc1 (stereo not drawn) [cpd 50] | 4.08 | 28 µM |  | 
5 | CCCC(C(=O)O)c1c(C)nc(N2CCC(NC(=O)c3ccccc3)CC2)nc1-c1ccc(C)cc1 (stereo not drawn) [cpd 54] | 5.41 | 67 µM |  | 
6 | CCCC(C(=O)O)c1c(C)nc(N2CCCCC2)nc1-c1cc(F)c(F)cc1F (stereo not drawn) [cpd 142] | 4.30 | 79 µM |  | 
7 | CCCC(C(=O)O)c1c(C)nc(-c2ccccc2)nc1-c1ccc(C(F)(F)F)cc1 (stereo not drawn) [cpd 108] | 4.00 | 47 µM |  | 
8 | CCCC(C(=O)O)c1c(C)nc(N2CCCCC2)nc1-c1ccc(OC)cc1F (stereo not drawn) [cpd 136] | 4.68 | 127 µM | 4.31 | 
9 | CCCC(C(=O)O)c1c(C)nc(-c2ccccc2)nc1-c1ccc(C)cc1 (stereo not drawn) [cpd 14] | 4.66 | 120 µM | 4.63 | 
10 | CCCC(C(=O)O)c1c(C)nc(-c2ccccc2)nc1-c1ccc(Cl)cc1 (stereo not drawn) [cpd 102] | 4.87 | 143 µM | 4.87 | 
11 | CCCC(C(=O)O)c1c(C)nc(N2CCCN(Cc3ccccc3)CC2)nc1-c1ccc(C)cc1 (stereo not drawn) [cpd 44] | 4.96 | 7 µM |  | 
12 | CCCC(C(=O)O)c1c(C)nc(N(C)C)nc1-c1ccccc1 (stereo not drawn) [cpd 2] | 4.44 | 164 µM |  | 
13 | CCCC(C(=O)O)c1c(C)nc(-c2ccccc2)nc1-c1ccc(Cl)cc1F (stereo not drawn) [cpd 94] | 5.14 | 81 µM | 4.72 | 
14 | CCCC(C(=O)O)c1c(C)nc(N2CCCCC2)nc1-c1ccccc1 (stereo not drawn) [cpd 20] | 4.90 | 120 µM | 4.80 | 
15 | CCCC(C(=O)O)c1c(C)nc(N2CCCC(C(=O)NCC(C)C)C2)nc1-c1ccc(C)cc1 (stereo not drawn) [cpd 38] | 4.96 | 144 µM | 5.22 | 
16 | CCCC(C(=O)O)c1c(C)nc(-c2ccccc2)nc1N1CCCCC1 (stereo not drawn) [cpd 60] | 5.33 | 61 µM | 4.88 | 
17 | CCCC(C(=O)O)c1c(C)nc(-c2ccccc2)nc1-c1ccc(Cl)cc1O (stereo not drawn) [cpd 111] | 5.71 | 97 µM | 4.58 | 
18 | Cc1ccc(-c2nc(N3CCCCC3)nc(C)c2C(CCCC(F)(F)F)C(=O)O)cc1 (stereo not drawn) [cpd 124] | 4.70 | 124 µM | 5.28 | 
19 | CCCC(C(=O)O)c1c(C)nc(-c2ccccc2)nc1-c1ccc2[nH]c(=O)[nH]c2c1 (stereo not drawn) [cpd 100] | 4.15 | 96 µM |  | 
20 | CCCC(C(=O)O)c1c(C)nc(N2CCc3ccccc3C2)nc1-c1ccc(C)cc1 (stereo not drawn) [cpd 42] | 4.76 | 26 µM |  | 
21 | CCCC(C(=O)O)c1c(C)nc(-c2ccccc2)nc1N1CCCCCC1 (stereo not drawn) [cpd 62] | 5.17 | 131 µM | 4.53 | 
22 | CCCC(C(=O)O)c1c(C)nc(NCC(C)(C)C)nc1-c1ccc(C)cc1 (stereo not drawn) [cpd 174] |  | 155 µM | 4.60 | 
23 | CCCC(C(=O)O)c1c(C)nc(/C=C/c2ccccc2)nc1-c1ccccc1 (stereo not drawn) [cpd 6] | 4.34 | 98.7 µM |  | 
24 | CCCC(C(=O)O)c1c(C)nc(-c2ccccc2)nc1-c1ccc2ccccc2c1 (stereo not drawn) [cpd 68] |  | 53 µM |  | 61%
25 | Cc1ccc(-c2nc(N3CCCCC3)nc(C)c2C(Cc2ccccc2)C(=O)O)cc1 (stereo not drawn) [cpd 126] | 4.57 | 67 µM |  | 
26 | CCCC(C(=O)O)c1c(C)nc(-c2ccccc2)nc1-c1ccc(Cl)cc1OC (stereo not drawn) [cpd 110] |  | 94 µM |  | 40%

Row | Compound | pIC50 [1] | CC50 [2] | pEC50 [3] | inhibition at 100 µM [1]
27 | CCCC(C(=O)O)c1c(C)nc(N2CCCC(Oc3ccccc3)C2)nc1-c1ccc(C)cc1 (stereo not drawn) [cpd 48] | 5.02 | 25 µM |  | 
28 | CCCC(C(=O)O)c1c(C)nc(-c2ccccc2O)nc1-c1ccc(C)cc1 (stereo not drawn) [cpd 158] |  | 119 µM | 4.75 | 
29 | CCCC(C(=O)O)c1c(C)nc(-c2ccccc2)nc1-c1ccc2c(c1)CCCO2 (stereo not drawn) [cpd 90] | 4.21 | 125 µM |  | 
30 | CCCC(C(=O)O)c1c(C)nc(N2CC[C@H](N(C)C)C2)nc1-c1ccc(C)cc1 (stereo partly drawn) [cpd 52] | 5.44 | 101 µM |  | 
31 | CCCC(C(=O)O)c1c(C)nc(-c2ccccc2)nc1-c1ccc2sccc2c1 (stereo not drawn) [cpd 88] | 4.18 | 121 µM |  | 
32 | CCCC(C(=O)O)c1c(C)nc(N2CCCCCC2)nc1-c1ccc(C)cc1 (stereo not drawn) [cpd 36] | 4.95 | 58 µM |  | 
33 | CCCC(C(=O)O)c1c(C)nc(-c2ccccc2)nc1N1CCc2ccccc2C1 (stereo not drawn) [cpd 76] | 4.03 | 74 µM |  | 
34 | CCCC(C(=O)O)c1c(C)nc(-c2ccccc2)nc1-c1ccc(C(C)C)cc1 (stereo not drawn) [cpd 106] | 4.25 | 32 µM |  | 
35 | CCCC(C(=O)O)c1c(C)nc(N2CCN(C)CC2)nc1-c1ccc(C)cc1 (stereo not drawn) [cpd 32] | 4.27 | > 250 µM |  | 
36 | CCCC(C(=O)O)c1c(C)nc(-c2ccccc2)nc1-c1ccc2c(c1)OCCN2C (stereo not drawn) [cpd 86] |  | 118 µM |  | 46%
37 | CCCC(C(=O)O)c1c(C)nc(-c2ccccc2)nc1-c1ccccc1 (stereo not drawn) [cpd 24] |  | > 125 µM | 4.10 | 
38 | CCCC(C(=O)O)c1c(C)nc(-c2ccccc2)nc1-c1ccc2ccn(C)c2c1 (stereo not drawn) [cpd 92] |  | 113 µM |  | 51%
39 | CCCC(C(=O)O)c1c(C)nc(N2CC(C)CC(C)C2)nc1-c1ccc(C)cc1 (stereo not drawn) [cpd 34] | 4.76 | 57 µM |  | 
40 | CCCC(C(=O)O)c1c(C)nc(-c2cnn(C)c2)nc1-c1ccc(C)cc1 (stereo not drawn) [cpd 162] |  | > 250 µM | 4.14 | 
41 | CCCC(C(=O)O)c1c(C)nc(-c2ccccc2)nc1-c1ccc2c(ccn2C)c1 (stereo not drawn) [cpd 74] |  | 129 µM |  | 46%
42 | CCCC(C(=O)O)c1c(C)nc(N2CCCC(c3nc(C(C)C)no3)C2)nc1-c1ccc(C)cc1 (stereo not drawn) [cpd 46] | 4.09 | 42 µM |  | 
43 | CCCC(C(=O)O)c1c(C)nc(-c2ccccc2)nc1-c1ccc(C)cc1OC (stereo not drawn) [cpd 120] |  | 124 µM |  | 48%
44 | CCCC(C(=O)O)c1c(C)nc(-c2ccccc2)nc1-c1cccc(O)c1 (stereo not drawn) [cpd 26] |  | > 125 µM | 4.15 | 
45 | CCCC(C(=O)O)c1c(C)nc(-c2ccccc2Cl)nc1-c1ccc(C)cc1 (stereo not drawn) [cpd 18] | 4.05 | 125 µM |  | 
46 | CCCC(C(=O)O)c1c(C)nc(-c2ccccc2Cl)nc1-c1ccccc1 (stereo not drawn) [cpd 16] |  | > 250 µM | 3.82 | 
47 | CCCC(C(=O)O)c1c(C)nc(-c2ccccc2)nc1N1CCN(C)CC1 (stereo not drawn) [cpd 64] |  | > 250 µM | 3.71 | 
48 | CCCC(C(=O)O)c1c(C)nc(-c2ccccc2)nc1Cc1ccccc1 (stereo not drawn) [cpd 117] | 5.21 | > 250 µM |  | 
49 | Cc1ccc(-c2nc(N3CCCCC3)nc(C)c2C(OC(C)(C)C)C(=O)O)cc1 (stereo not drawn) [cpd 154] |  | 118 µM | 5.97 | 
50 | CCCC(C(=O)O)c1c(C)nc(-c2ccccc2)nc1Oc1ccccc1 (stereo not drawn) [cpd 78] |  | 102 µM |  | 58%
51 | CCCC(C(=O)O)c1c(C)nc(-c2ccccc2)nc1-c1ccc(C)c(C)c1 (stereo not drawn) [cpd 66] | 4.55 | 120 µM |  | 
